The values below come from patent US11142543B2 (priority 2016, dated 2021).

For data set [1], the system named is ICR mice. Nature of the data set: Forced swimming test (FST), Example 38. It counts as in vivo. The settings on record: gavage 10 mg/Kg for 6 days, t-test. An excerpt:
Forced swimming test (FST) to investigate the antidepressant activity of some compounds and some natural products of the present invention
(§1) Male ICR mice (body weight, 20±2 g) used in the experiment were purchased from the Experimental Animal Center of Shanghai Institute of Materia Medica, Chinese Academy of Sciences. They were free access to water and kept at room temperature (23 2) ° C. in natural light. All mice were randomly divided into a blank control group and a test group, with 10 mice in each group and 5 mice/cage. The experiment was started after 3 days of adaptation in the breeding environment. The mice were fasted for 12 hours before the experiment but free access to water. The specific administration method was gavage administration, and the administration dose of the administration group was 10 mg/Kg, and the blank control group was given an equal volume of 0.5% CMC-Na.
Specific procedures: The mice were continuously administered for 6 days, and tested 1 hour after the last administration. Firstly, the spontaneous activity of the mice was measured by the open field method, that is, the mice were individually placed in a cylindrical glass jar for 4 minutes, and the number of lifting arms within the last two minutes was recorded. The mice were then individually placed in a cylindrical glass jar (20 cm high and 14 cm in diameter) with a water depth of 10 cm and a water temperature of 23° C. to 25° C. After mice entered into water, a 6-minute timing was conducted, the cumulative immobility time (the criteria for determining immobility: the mice stopped struggling in the water, or floated with only small limb movements to keep the head float on the water) within the last four minutes was recorded. Each group of mice was operated in parallel.
Experimental data processing: The experimental results were expressed as mean standard error (x SD). Statistical analysis was performed using t-test to determine whether it was significant. […] Then, the t-test was performed on the experimental index of forced swimming to determine whether it had antidepressant effect.

Data set [2] has as its system ICR mice. Put plainly: Tail suspension test (TST), Example 39. It counts as in vivo. The settings on record: gavage 10 mg/Kg for 6 days, t-test.
Text: Tail Suspension Test (TST) to Investigate the Antidepressant Activity of Some Compounds and Some Natural Products of the Present Invention
as §1, with “dose” for “dose of the administration group”
Specific procedures: The mice were continuously administered for 6 days, and tested 1 hour after the last administration. Firstly, the spontaneous activity of the mice was measured by the open field method, that is, the mice were individually placed in a cylindrical glass jar for 4 minutes, and the number of lifting arms within the last 2 minutes was recorded. Then the tail of the mice was stick onto the horizontal bar by the tape at 2 cm from the tip of the tail, and the animal eyesight was separated by the surrounding plates. The horizontal bar was about 25 cm from the ground, so that the mouse was about 10 cm from the ground, and the timing was 6 min. The cumulative immobility time within the last 4 minutes was recorded. Each group of mice was operated in parallel.
Experimental data processing: The experimental results were expressed as mean standard error (x SD). Statistical analysis was performed using t-test to determine whether it was significant. […] Then, the t-test was performed on the experimental index of tail suspension test to determine whether it had antidepressant effect.

Data set [3] deals with mice. Put plainly: Forced swimming test in mouse model, compound C-11 versus fluoxetine, Example 40. It counts as in vivo. Particulars: FIG. 1. As for the experimental part:
The mice were placed in a cylindrical jar 24 hours before administration to accommodate the underwater environment for 15 min. On the day of the behavioral test, animals were administered twice and administered orally 4 h and 1 h before the behavioral test. The mice were individually placed in a cylindrical glass jar, timed for 6 minutes, and the number of arm lift was recorded within the last 2 minutes. The mice were then placed in a cylindrical glass jar having 30 cm high and 20 cm in diameter. […] Water temperature was 23° C.-25° C. After the mice entered into the water, a 6-minute video was taken. […] Each group of mice was operated in parallel.

In data set [4] the test system is mice. Put plainly: Tail suspension test in mouse model, compound C-11 versus fluoxetine, Example 40. It is filed as in vivo. Particulars: FIG. 2. The procedure:
On the day of the behavioral test, animals were dosed twice and administered orally 4 h and 1 h before the behavioral test. During the experiment, the tail of the mouse was hung on a tail suspension test stand about 15 cm away from the ground with a tape or a clip at about 1 cm away from the tail end. The mice struggled to overcome the abnormal posture, but appeared intermittent immobility after a period of activity showing disappointment state. The experimental time for each group was 6 minutes. Since most of the mice struggled actively for the first two minutes, the immobility time within the last four minutes was recorded.

For data set [5], the system named is rats. Nature of the data set: Forced swimming test in rat model, compound C-11 versus fluoxetine, Example 41. It counts as in vivo. The procedure:
The rats were placed in a cylindrical jar 24 hours before administration to accommodate the underwater environment for 15 min. On the day of the behavioral test, animals were administered twice and administered orally 4 h and 1 h before the behavioral test. The rats were individually placed in a cylindrical glass jar, timed for 6 minutes, and the number of arm lift was recorded within the last 2 minutes. The rats were then placed in a cylindrical glass jar having 30 cm high and 20 cm in diameter. […] Water temperature was 23° C.-25° C.

In data set [6] the test system is rats. Nature of the data set: Tail suspension test in rat model, compound C-11 versus fluoxetine, Example 41. It counts as in vivo. As for the experimental part:
On the day of the behavioral test, animals were dosed twice and administered orally 4 h and 1 h before the behavioral test. During the experiment, the tail of the rat was hung on a tail suspension test stand about 15 cm away from the ground with a tape or a clip at about 1 cm away from the tail end. […] The experimental time for each group was 6 minutes.

The test system of data set [7] is C57 mice susceptible to social defeat by CD-1 aggressive mice. Put plainly: Social defeated stress (SDS) model, Example 42. Particulars: 10 mg/kg gavage every day. It is filed as in vivo.
Description: Male CD-1 aged 4-6 months mice which had passed childbearing age were raised separately, allowed to eat freely and adapt to the environment for about one week. Male C57 mice (aged 8-20 weeks differently) were used to screen for aggressive CD-1 mice. The mice screened by C57 were placed directly in the cage of CD-1 for 3 minutes, and the latency period for CD-1 to start showing offensive was recorded, and then the mice screened by C57 were moved out. For each CD-1 mouse, the same C57 was used to screen it three times a day, and different C57-selected mice were selected every day for a total of three days of screening. […] After screening for CD-1 aggressive mice for modeling, each C57 test mouse was exposed to different CD-1 aggressive mice for 10 consecutive days, 10 minutes each day. […] After 10 minutes of contact, the test mice were isolated from the invaders. Test mice and aggressive mice were placed in adjacent sections of the same squirrel cage, separated by a porous transparent plastic baffle, allowing test mice to be exposed under a threatening chronic stress stimulation for the next 24 hours. The control mice were placed in cages having the same structure, but the other side of the baffle was placed with other mice of the same line that were replaced daily. After 24 hours after the end of the last day of the experiment, we evaluated CSDS-induced social behavioral changes and selected all susceptible mice based on previous reports. The social interaction ratio (SI ratio) was calculated according to the following formula: SI ratio=time for the mouse in the interaction area when the aggressor exists/time for the mouse in the interaction area when the aggressor is absent. […] All selected test mice and control mice were then housed individually for 3 weeks. […] The mice in the vehicle group were administered by gavage with 0.5% CMC-Na every day. The SI ratio was assessed once a week.
Two-way ANOVA was used to analyze and LSD method was used for the multiple comparisons of calibration results. The data were expressed in Mean sem. […]
Data set [8] concerns ICR mice. Put plainly: Toxicity observed during antidepressant efficacy screening (FST and TST animal batch). It is filed as in vivo. Particulars: same animal batch as efficacy screening, gavage 10 mg/Kg.
Text: as §1
Male ICR mice (body weight, 20±2 g) used in the experiment were purchased from the Experimental Animal Center of Shanghai Institute of Materia Medica, Chinese Academy of Sciences. They were free access to water and kept at room temperature (23 2) ° C. in natural light. All mice were randomly divided into a blank control group and a test group, with 10 mice in each group and 5 mice/cage. The experiment was started after 3 days of adaptation in the breeding environment. The mice were fasted for 12 hours before the experiment but free access to water. […]

The conditions of data set [9]: Acta Pharmacologica Sinica 2014; 35 (9): 1188-1198; cited from earlier work.
Setting [10] is: mice, oral 4 h and 1 h before the test, vs blank group.
[11] abbreviates: dose 3.46 mg/kg oral, vs vehicle group, FIG. 3.
Setting [12] is: rats, oral 4 h and 1 h before the test, dose not given.

Each structure is given as a SMILES string.

In the case of `C[C@H]1CC[C@@]2(OC1)O[C@H]1C[C@H]3[C@@H]4CC[C@@H]5C[C@H](NC(=O)NC6CCCCC6)CC[C@]5(C)[C@H]4CC[C@]3(C)[C@H]1[C@@H]2C` [compound C-11], in the data set on ICR mice [1], the “effect on immobility time of mice in forced swimming test compared with the blank group (in words)” value is “extremely significant antidepressant activity”. Moreover, in the data set with ICR mice [2], the “effect on immobility time of mouse in tail suspension test compared with the blank group (in words)” value is “extremely significant antidepressant activity”. For the same molecule, the “effect on cumulative immobility time of mice in the forced swimming test (in words)” value in the data set with mice [3] (setting [10]) is reported as “significantly reduced the cumulative immobility time”. In addition, the “effective dose compared with fluoxetine” value in the data set with mice [3] (mouse forced swimming test) is on record as “only half of that of fluoxetine”; with mice [4] (mouse tail suspension test) it was “only half of that of fluoxetine”; in the data set on rats [5] (rat forced swimming test, FIG. 3), “significantly lower than that of the positive drug fluoxetine”; in the data set with rats [6] (rat tail suspension test, FIG. 4), “significantly lower than that of the positive drug fluoxetine”. For the same molecule, the “effect on cumulative immobility time of the mouse in tail suspension test (in words)” value in the data set on mice [4] (setting [10]) was “significantly reduced the cumulative immobility time”. The “effect on immobility time of rats in forced swimming test” value is “significantly reduce the immobility time” in the data set with rats [5] (dose 1.73 mg/kg oral, vs vehicle group, FIG. 3) and “significantly reduce the immobility time” in the data set with rats [5] (setting [11]). The “effect on wall climbing behavior / wall climbing time of rats in forced swimming test” value in the data set with rats [5] (setting [11]) is recorded as “significantly increases the wall climbing time”. The “effect on cumulative immobility time of rats in the forced swimming test (in words)” value in the data set on rats [5] (setting [12]) was “significantly reduced the cumulative immobility time”. Also, the “effect on cumulative immobility time of rats in tail suspension test” value in the data set on rats [6] (dose 3.46 mg/kg oral, vs vehicle group, FIG. 4) is “significantly reduce the cumulative immobility time”. Also, in the data set on rats [6] (setting [12]), the “effect on immobility time of rats in tail suspension test (in words)” value is given as “significantly reduced the immobility time”. In addition, in [7], the “duration of oral administration that effectively alleviates depressive symptoms” value is 1-2 weeks. For the same molecule, the toxicity observed entry in the data set with ICR mice [8] is given as “No significant toxicity was observed”.

As for `C[C@H]1CC[C@@]2(OC1)O[C@H]1C[C@H]3C4CC[C@@H]5C[C@@H](O[C@@H]6OC(CO)[C@H](O)[C@H](O)C6O[C@@H]6OC(CO)[C@@H](O)[C@H](O)C6O)CC[C@]5(C)C4CC[C@]3(C)C1[C@@H]2C` (stereo partly shown) [timosaponin A3, reference compound], the “effect on immobility time of mice in forced swimming test compared with the blank group (in words)” value with ICR mice [1] is recorded as “could not significantly reduce the immobility time”. In addition, in the data set with ICR mice [2], the “effect on immobility time of mouse in tail suspension test compared with the blank group (in words)” value is listed as “significant antidepressant activity”. Besides, in data set [9], the toxicity result was “significant toxicity”.
